ChEMBL document CHEMBL1201862, “PubChem BioAssay data set” (2004)
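Where inhibition never reached the appropriate level, the endpoint shown equals the highest concentration tested. Otherwise, values were interpolated linearly from a five-concentration, 48-hour dose response in 96-well plates. The concentration for 50% growth inhibition is given as GI50.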 Active and inactive are the calls of the source. Cut-off read from the data, not from the text of the source: active = GI50 up to about 1.1 µM and inactive = higher.

Assays:
Assay in all cases: NCI-60 cell line screen, 48 h
786-0 = tested on: 786-0
MOLT-4 = tested on: MOLT-4
RXF 393 = tested on: RXF 393
COLO 205 = tested on: COLO 205
UO-31 = tested on: UO-31
SF-539 = tested on: SF-539
HL-60 = tested on: HL-60
SW-620 = tested on: SW-620
OVCAR-3 = tested on: OVCAR-3
SK-MEL-28 = tested on: SK-MEL-28
HOP-92 = tested on: HOP-92
SNB-75 = tested on: SNB-75
NCI-H23 = tested on: NCI-H23
K562 = tested on: K562
LOX IMVI = tested on: LOX IMVI
CAKI-1 = tested on: CAKI-1

Measured: GI50

N#Cc1c(-c2ccccc2)c(-c2ccccc2)cc2c(=O)c3ccc(Cl)cc3[nH]c12
inactive: 786-0 > 100 µM | MOLT-4 > 100 µM | RXF 393 > 100 µM | COLO 205 > 100 µM | UO-31 > 100 µM | SF-539 > 100 µM | HL-60 > 100 µM | SW-620 > 100 µM | OVCAR-3 > 100 µM | SK-MEL-28 > 100 µM | HOP-92 > 100 µM | SNB-75 > 100 µM | NCI-H23 > 100 µM

CCn1c(C)nc([N+](=O)[O-])c1Sc1ncc[nH]1
inactive: K562 31.4 µM | 786-0 > 100 µM | MOLT-4 16.7 µM | COLO 205 27.9 µM | UO-31 30.5 µM | SF-539 52.6 µM | LOX IMVI 14.7 µM | SW-620 48.2 µM | CAKI-1 68.1 µM | OVCAR-3 74.8 µM | SK-MEL-28 31 µM | HOP-92 25.8 µM | SNB-75 50.6 µM | NCI-H23 29.9 µM

C[N+](C)(C)CC(=O)NC(=O)N/N=C\C(CC#N)CN(Cc1ccccc1)Cc1ccccc1 (stereo unspecified)
inactive: K562 > 100 µM | 786-0 > 100 µM | MOLT-4 > 100 µM | RXF 393 > 100 µM | COLO 205 > 100 µM | UO-31 > 100 µM | SF-539 > 100 µM | LOX IMVI > 100 µM | HL-60 > 100 µM | SW-620 > 100 µM | CAKI-1 > 100 µM | OVCAR-3 > 100 µM | SK-MEL-28 > 100 µM | SNB-75 > 100 µM | NCI-H23 > 100 µM

N#Cc1ccc(Cc2ccccn2)cc1Cl
inactive: K562 > 100 µM | 786-0 > 100 µM | MOLT-4 > 100 µM | RXF 393 > 100 µM | COLO 205 > 100 µM | UO-31 > 100 µM | SF-539 > 100 µM | LOX IMVI > 100 µM | HL-60 > 100 µM | SW-620 > 100 µM | CAKI-1 > 100 µM | SK-MEL-28 > 100 µM | HOP-92 > 100 µM | NCI-H23 > 100 µM

COC(=O)c1cc2c(=O)n(C)c3ccccc3n2c1C(=O)OC
inactive: K562 > 100 µM | 786-0 22.8 µM | MOLT-4 > 100 µM | RXF 393 36.2 µM | COLO 205 > 100 µM | UO-31 63.1 µM | SF-539 26.1 µM | LOX IMVI 45.2 µM | SW-620 64.9 µM | CAKI-1 73.5 µM | OVCAR-3 30 µM | SK-MEL-28 70.5 µM | HOP-92 33 µM | SNB-75 16.1 µM | NCI-H23 40.7 µM

COc1ccc2[nH]cc(CCNC(=O)[C@](O)(Cc3cn(C)c4ccccc34)[C@@]3(O)OCC(O)C3O)c2c1 (stereo partly specified)
inactive: K562 74 µM | 786-0 > 100 µM | MOLT-4 37 µM | RXF 393 > 100 µM | COLO 205 > 100 µM | SF-539 40.4 µM | LOX IMVI > 100 µM | HL-60 32.1 µM | SW-620 > 100 µM | CAKI-1 > 100 µM | OVCAR-3 > 100 µM | SK-MEL-28 > 100 µM | HOP-92 50.2 µM | SNB-75 38.5 µM | NCI-H23 > 100 µM

COC(=O)c1ccc(C=C(C#N)C#N)cc1
inactive: K562 23.2 µM | 786-0 16.9 µM | MOLT-4 21.7 µM | COLO 205 27.7 µM | SF-539 19.5 µM | LOX IMVI 21 µM | HL-60 28.4 µM | SW-620 21.3 µM | CAKI-1 30.7 µM | OVCAR-3 29.4 µM | SK-MEL-28 19.3 µM | HOP-92 14.7 µM | SNB-75 27.4 µM | NCI-H23 19.4 µM

CC1=CCC23C(C1)OC(Br)(C=CC2(C)O)C3(C)C (stereo unspecified)
inactive: K562 > 100 µM | 786-0 > 100 µM | COLO 205 > 100 µM | SF-539 > 100 µM | LOX IMVI > 100 µM | HL-60 > 100 µM | SW-620 > 100 µM | CAKI-1 > 100 µM | SK-MEL-28 > 100 µM | HOP-92 > 100 µM | SNB-75 > 100 µM | NCI-H23 > 100 µM

COC1=CC(=O)C2(C=C1OC)OC[C@H]1Oc3c(ccc4c3C=CC(C)(C)O4)C(=O)[C@H]12 (stereo partly specified)
inactive: K562 36.8 µM | 786-0 68.1 µM | MOLT-4 27.4 µM | RXF 393 30.2 µM | COLO 205 36.6 µM | UO-31 60.5 µM | SF-539 34.5 µM | LOX IMVI 78.9 µM | HL-60 15.6 µM | SW-620 35 µM | OVCAR-3 42.4 µM | SK-MEL-28 41.2 µM | HOP-92 7.64 µM | SNB-75 32.1 µM | NCI-H23 23.7 µM

O=C1CC[C@H](NC(=O)Cc2ccccc2)C(=O)N1 [ANTINEOPLASTON A10]
inactive: K562 > 1250 µM | 786-0 > 1250 µM | MOLT-4 > 1250 µM | RXF 393 > 1250 µM | COLO 205 > 1250 µM | UO-31 > 1250 µM | SF-539 > 1250 µM | LOX IMVI > 1250 µM | HL-60 > 1250 µM | SW-620 > 1250 µM | CAKI-1 > 1250 µM | SK-MEL-28 > 1250 µM | SNB-75 877 µM | NCI-H23 > 1250 µM

CC[C@H]1CC(=O)c2c(cc3c(c2O)C(=O)c2ccccc2C3=O)[C@@]1(C#N)C(=O)OC(C)(C)C
inactive: 786-0 4.15 µM | MOLT-4 2.33 µM | RXF 393 5.2 µM | COLO 205 1.96 µM | UO-31 2.69 µM | SF-539 4.13 µM | LOX IMVI 3.54 µM | SW-620 3.65 µM | OVCAR-3 2.81 µM | SK-MEL-28 5.92 µM | HOP-92 9.31 µM | SNB-75 4.1 µM | NCI-H23 3.24 µM

O=C1[C@@H]2C3c4ccccc4C([C@@H]2C(=O)N1c1ccccc1)S3(=O)=O
inactive: K562 61.4 µM | 786-0 55.8 µM | MOLT-4 > 100 µM | RXF 393 38.1 µM | COLO 205 > 100 µM | UO-31 > 100 µM | SF-539 > 100 µM | LOX IMVI 47.2 µM | HL-60 > 100 µM | SW-620 51.4 µM | OVCAR-3 > 100 µM | HOP-92 > 100 µM | SNB-75 65.3 µM | NCI-H23 > 100 µM

COc1ccc(C(=C(C#N)C#N)c2ccc(OC)cc2)cc1
inactive: K562 > 100 µM | 786-0 > 100 µM | MOLT-4 > 100 µM | RXF 393 > 100 µM | COLO 205 > 100 µM | UO-31 > 100 µM | SF-539 > 100 µM | LOX IMVI > 100 µM | HL-60 > 100 µM | SW-620 > 100 µM | CAKI-1 > 100 µM | OVCAR-3 > 100 µM | SK-MEL-28 > 100 µM | NCI-H23 > 100 µM

Cc1cc([N+](=O)[O-])c(C)c2c1[nH]c1ccc(O)cc12
inactive: K562 45.8 µM | 786-0 39.4 µM | MOLT-4 59.2 µM | COLO 205 64.6 µM | UO-31 > 100 µM | SF-539 > 100 µM | LOX IMVI 61.5 µM | HL-60 16.2 µM | SW-620 63.1 µM | CAKI-1 > 100 µM | OVCAR-3 60.4 µM | SK-MEL-28 > 100 µM | SNB-75 > 100 µM | NCI-H23 > 100 µM

Cc1cc(=O)c2c([nH]1)NS(=O)(=O)NC2=O
inactive: K562 > 100 µM | 786-0 > 100 µM | MOLT-4 > 100 µM | COLO 205 > 100 µM | UO-31 > 100 µM | SF-539 > 100 µM | HL-60 > 100 µM | SW-620 > 100 µM | CAKI-1 > 100 µM | OVCAR-3 > 100 µM | SK-MEL-28 > 100 µM | HOP-92 > 100 µM | SNB-75 > 100 µM | NCI-H23 > 100 µM

Cc1ccc(/N=N/C(C(=O)c2ccccc2)C(=O)c2ccccc2)cc1
inactive: K562 17.7 µM | 786-0 16.7 µM | MOLT-4 10.2 µM | COLO 205 22.6 µM | UO-31 14.8 µM | SF-539 22.4 µM | HL-60 9.08 µM | SW-620 29.1 µM | CAKI-1 27.4 µM | OVCAR-3 29.1 µM | SK-MEL-28 31.6 µM | HOP-92 13.6 µM | SNB-75 20.6 µM | NCI-H23 20.5 µM

CCOC(=O)NC/C=C/COC1CCCCO1 (stereo unspecified)
inactive: K562 > 100 µM | 786-0 > 100 µM | MOLT-4 > 100 µM | RXF 393 > 100 µM | COLO 205 > 100 µM | UO-31 > 100 µM | SF-539 > 100 µM | HL-60 > 100 µM | SW-620 > 100 µM | CAKI-1 > 100 µM | SK-MEL-28 > 100 µM | SNB-75 > 100 µM

COc1ccc(/C=C2\C(=O)Nc3ccccc32)cc1OC
inactive: K562 44.7 µM | 786-0 33.1 µM | MOLT-4 > 100 µM | RXF 393 > 100 µM | COLO 205 > 100 µM | UO-31 86.3 µM | SF-539 40.6 µM | LOX IMVI 45.3 µM | HL-60 46.7 µM | SW-620 45.1 µM | CAKI-1 > 100 µM | SK-MEL-28 > 100 µM | HOP-92 44.6 µM | SNB-75 24.5 µM | NCI-H23 > 100 µM

O=C(N/C(=C\c1ccc(Cl)cc1)c1nc2ccccc2[nH]1)c1ccccc1
inactive: K562 15.1 µM | 786-0 18.9 µM | MOLT-4 16.5 µM | RXF 393 18.4 µM | COLO 205 17.7 µM | UO-31 18.8 µM | SF-539 16.7 µM | LOX IMVI 16.2 µM | SW-620 27.4 µM | CAKI-1 20.6 µM | OVCAR-3 19.6 µM | SK-MEL-28 18.5 µM | HOP-92 14.9 µM | SNB-75 19.7 µM | NCI-H23 18.3 µM
